The values that follow come from patent US8858914B2 (Endocyte, Inc., priority 2002, dated 2014).

The test system of assay [1] is M109 tumor nodules. Nature of the assay: imaging of metastatic tumor nodules of M109 cell origin (ip or iv inoculation). It is filed as in vivo, mouse. The text has this: In order to test the ability of folate-fluorescein to facilitate detection of microscopic tumor nodules, metastatic tumors of M109 cell origin were induced by inoculation of cells either into the peritoneal cavity (ip) or femoral vein (iv) of the syngeneic mice. After allowing sufficient time for tumor growth, tumor loci were again imaged by intravenous administration of folate-fluorescein followed by laser excitation.

The test system of assay [2] is arthritic joints (folate receptor expressing macrophages). The note with it: rat paws. The text has this:
Targeting a photosensitizer to arthritic joints allow phototherapy to be applied to the arthritic joint while preventing toxicity to other tissues. […] One potential application of arthritis imaging is in the area of sport animal medicine. Race animals, such as dogs or horses, that have arthritis, could be diagnosed in an easy, inexpensive, and nonradioactive manner by using fluorescent imaging agents.

Assay [3] relates to L1210 tumor nodules. Nature of the assay: imaging of metastatic L1210 lesions after iv inoculation. In kind it is in vivo, mouse. The text has this: To further explore the ability of folate-fluorescein to image small metastatic lesions, L1210 cells were also inoculated intravenously into syngeneic mice and the various anatomical regions were again imaged as above. Since L1210 cells are lymphocytic in origin and relatively small in size, they are capable of forming tumor nodules throughout the body after iv injection, rather than becoming entrapped primarily in the lung capillary network. […] Further, the animal's spleen was almost entirely filled with minute tumor loci (FIG. 9a) and was consequently enlarged to roughly twice its normal size. Tumor nodules were also found in muscle tissue near the shoulder (FIG. 9b) and in the brain, spinal cord, and along the pleura.

In assay [4] the test system is folate receptor-expressing tumor tissue.
Experimental: Tumors are induced subcutaneously by injecting 100 μL of cell culture solution containing approximately 500,000 M109 or L1210 cells. Imaging of mice with subcutaneous tumors is performed when the tumors reach approximately 200 mm^3 in size. For intraperitoneal (i.p.) tumors, approximately 500,000 M109 or L1210 cells are implanted in the peritoneal cavity and allowed to proliferate for approximately 2 weeks prior to analysis, which is sufficient time for tumor masses greater than 1 mm^3 to appear. Metastatic tumors are initiated by injection of approximately 200,000 M109 or L1210 cells into the femoral vein, and the imaging is performed two weeks afterwards in a variety of tissues.
In this case, the laser 12 is used to illuminate a 5 mm diameter area of a sample placed on an OLYMPUS BH-2 microscope 14 stage (Olympus, Inc., Melville, N.Y.). […] The fluorescence spectra are acquired using KESTREL Spec software (Princeton Instruments, Trenton, N.J.) with an integration time of 5 s, and fluorescence wavelengths are calibrated against neon lamp calibration lines.
Once again, light 28 from an argon laser 12 is directed via mirrors 26 so as to illuminate tissue on a stage 32 of microscope 14. Any fluorescence is captured by camera 34 via filter 35, similar to filter 120, and by the spectrograph 22. […]
Assay [5] deals with M109 and L1210 tumors. Nature of the assay: whole-tissue fluorescence imaging of tumors vs adjacent normal tissue after iv injection. The note with it: M109 (Balb/c) and L1210 (DBA) tumors, 2 h after iv injection, argon laser 488 nm. In kind it is in vivo, mouse. Here is the method:
Whole-tissue fluorescent imaging is performed using the imaging system 110 shown in FIG. 2 including an argon laser 12 (Spectra-Physics, Mountain View, Calif.) operating at 488 nm with a total laser power of 200 mW reaching the 2 cm sample field of view 114. Fluorescence is detected by a colored CCD camera 116 such as a JAI CV-53200N manufactured by Edmund Industrial Optics, Barrington, N.J. with a sensing area of 768×494 pixels and a pixel size of […]. An f/5.6 152-457 mm 10× CCD zoom lens 118, also produced by Edmund Industrial Optics, Barrington, N.J., is used to collect fluorescence from the 2.0 cm×2.0 cm field of view 114. A band pass filter 120 with […] 80% T at 515-585 nm (Inter, Inc., Socorro, N.M.) is placed between the lens 118 and the CCD Camera 116 in order to reject laser light 20 and suppress tissue auto-fluorescence outside the fluorescein fluorescence band. The images are digitally acquired using SNAPPY software v. 4.0 manufactured by Play, Inc., Sacramento, Calif.
The light 20 of laser 12 is aimed via a plurality of mirrors 26 such that the light 20 passes through a diffusing lens 124 to illuminate the field of view 114 as shown in FIG. 2. […]
In fact, the differences in fluorescence intensity were readily apparent to the naked eye without the assistance of optical equipment as shown in the upper pictures of FIGS. 5a-c. […]

As to “folate-γ-fluorescein [folate-fluorescein]”, the “fluorescence of tumor metastases compared to adjacent nonmalignant tissue” value in assay [1] (intravenously inoculated mice, lungs) is “all tumor metastases fluoresced intensely”. Further, the “size of metastatic tumor nodules readily observable” value in assay [1] (lungs of intravenously inoculated mice, iv conjugate, laser excitation) is given as “smaller than 0.5 mm”. The “contrast between arthritic and non-arthritic tissues” value in assay [2] is given as “discernable contrast”. In addition, the “fluorescence of L1210 tumor nodules throughout the body” value in assay [3] (most tissues of the body, laser illumination) is “no nodules were identified that did not fluoresce”. Moreover, in assay [3] (under and top surface of the liver), the “detection of microscopic L1210 nodules in liver under laser illumination” value is on record as “clearly revealed under laser illumination”. In addition, the “fluorescence intensity of liver and muscle tissues, injected vs noninjected mice” value in assay [4] (liver and muscle tissues not expressing the folate receptor) is listed as “no difference in fluorescence intensity”. In addition, the “fluorescence of tumor tissue from injected mice relative to autofluorescence of noninjected controls” value in assay [4] (tumor tissue, 2 h after injection of 8.7 μg, laser excitation) is recorded as “approximately fivefold”. The “fluorescence of tumors compared with adjacent normal tissues” value in assay [5] was “significantly more fluorescent than adjacent normal tissues”.
